Measurements taken from US10842804B2 (MEDIGEN BIOTECHNOLOGY CORP., priority 2017, dated 2020).

Experiment: Phase III trial: safety profiles, treatment completion and compliance
Settings: in vivo
Protocol: After signing the consent form, the eligibility of each patient was verified according to the enrollment criteria by checking his/her medical records and current disease conditions. Eligible patients were stratified by tumor size (<5 cm vs. ≥5 cm) and vascular invasion (no vs. yes) and then randomized at a ratio of 1:1 within strata to receive PI-88 (160 mg/day) or a placebo by using a centralized interactive web response system (Cenduit Interactive Response Technology; Cenduit, Durham, N.C., USA).
PI-88 or placebo was administered in a single subcutaneous injection each day for four consecutive days per week for 3 weeks out of every 4 weeks (a cycle with 4-weeks). The days of injection were the same in every administration week. After an initial training period of 1-8 days, participants self-administered the study drug at home. Participants received treatment for up to 52 weeks and were followed until 96 weeks.
If the antiheparin antibody test was positive, the participant was asked to permanently discontinue the treatment.
The distributional properties of continuous variables are expressed as mean t standard deviation, categorical variables are presented as frequency and percentage (%), and the survival curves of the DFS period were estimated using the Kaplan-Meier method. Baseline demographic and clinical characteristics were compared between the PI-88 and placebo groups. […]

muparfostat [PI-88]
fatal AEs during the study treatment period: No patients
